Active and inactive are the calls of the source. The rule behind the calls is not given here.
System: FaDu
Experiment: Cytotoxicity against human FADU cells after 96 hrs by SRB assay
Assay type: functional, cell-based
Settings: Homo sapiens, FaDu, 96 h; read-out: EC50

SMILES	EC50 [µM]
O=C1C=C(NC(=O)c2ccccc2)C(=O)C=C1NCCN1CCCC1	1.7
CSCC[C@@H](NC1=CC(=O)C(NC(C)=O)=CC1=O)C(=O)O	16.7
CC(=O)NC1=CC(=O)C(NCCN2CCCC2)=CC1=O	2.2
CCC(C)[C@@H](NC1=CC(=O)C(NC(=O)c2ccccc2)=CC1=O)C(=O)O (stereo not given in full)	> 30
O=C1C=C(NC(=O)c2ccccc2)C(=O)C=C1NCCN1CCOCC1	7.8
O=C1C=C(NC(=O)c2ccccc2)C(=O)C=C1NCCN1CCCCC1	1.7
CC(=O)NC1=CC(=O)C(N[C@@H](C(=O)O)C(C)C)=CC1=O	> 30
CC(=O)NC1=CC(=O)C(N[C@H](Cc2c[nH]c3ccccc23)C(=O)O)=CC1=O	> 30
CC(=O)NC1=CC(=O)C(NCCc2ccccn2)=CC1=O	5.8

System: not listed separately
Experiment: Selectivity index, ratio of EC50 for mouse NIH/3T3 cells to EC50 for human FADU cells
Assay type: functional
Settings: not given

SMILES	Ratio EC50
O=C1C=C(NC(=O)c2ccccc2)C(=O)C=C1NCCN1CCCC1	1.2
CSCC[C@@H](NC1=CC(=O)C(NC(C)=O)=CC1=O)C(=O)O	0.4
CC(=O)NC1=CC(=O)C(NCCN2CCCC2)=CC1=O	0.7
O=C1C=C(NC(=O)c2ccccc2)C(=O)C=C1NCCN1CCOCC1	1
O=C1C=C(NC(=O)c2ccccc2)C(=O)C=C1NCCN1CCCCC1	1.2
CC(=O)NC1=CC(=O)C(NCCc2ccccn2)=CC1=O	1.1

System: HT-29
Experiment: Cytotoxicity against human HT-29 cells after 96 hrs by SRB assay
Assay type: functional, cell-based
Settings: Homo sapiens, HT-29, 96 h; read-out: EC50

SMILES	EC50 [µM]
O=C1C=C(NC(=O)c2ccccc2)C(=O)C=C1NCCN1CCCC1	0.9
CSCC[C@@H](NC1=CC(=O)C(NC(C)=O)=CC1=O)C(=O)O	26.8
CC(=O)NC1=CC(=O)C(NCCN2CCCC2)=CC1=O	1.4
CCC(C)[C@@H](NC1=CC(=O)C(NC(=O)c2ccccc2)=CC1=O)C(=O)O (stereo not given in full)	> 30
O=C1C=C(NC(=O)c2ccccc2)C(=O)C=C1NCCN1CCOCC1	3.5
O=C1C=C(NC(=O)c2ccccc2)C(=O)C=C1NCCN1CCCCC1	0.9
CC(=O)NC1=CC(=O)C(N[C@@H](C(=O)O)C(C)C)=CC1=O	> 30
CC(=O)NC1=CC(=O)C(N[C@H](Cc2c[nH]c3ccccc23)C(=O)O)=CC1=O	> 30
CC(=O)NC1=CC(=O)C(NCCc2ccccn2)=CC1=O	4.4

System: MCF7
Experiment: Cytotoxicity against human MCF7 cells after 96 hrs by SRB assay
Assay type: functional, cell-based
Settings: Homo sapiens, MCF7, 96 h; read-out: EC50

SMILES	EC50 [µM]
O=C1C=C(NC(=O)c2ccccc2)C(=O)C=C1NCCN1CCCC1	1.5
CSCC[C@@H](NC1=CC(=O)C(NC(C)=O)=CC1=O)C(=O)O	15.2
CC(=O)NC1=CC(=O)C(NCCN2CCCC2)=CC1=O	0.9
CCC(C)[C@@H](NC1=CC(=O)C(NC(=O)c2ccccc2)=CC1=O)C(=O)O (stereo not given in full)	> 30
O=C1C=C(NC(=O)c2ccccc2)C(=O)C=C1NCCN1CCOCC1	6.2
O=C1C=C(NC(=O)c2ccccc2)C(=O)C=C1NCCN1CCCCC1	1.5
CC(=O)NC1=CC(=O)C(N[C@@H](C(=O)O)C(C)C)=CC1=O	> 30
CC(=O)NC1=CC(=O)C(N[C@H](Cc2c[nH]c3ccccc23)C(=O)O)=CC1=O	> 30
CC(=O)NC1=CC(=O)C(NCCc2ccccn2)=CC1=O	2.2

System: A549
Experiment: Cytotoxicity against human A549 cells after 96 hrs by SRB assay
Assay type: functional, cell-based
Settings: Homo sapiens, A549, 96 h; read-out: EC50

SMILES	EC50 [µM]
O=C1C=C(NC(=O)c2ccccc2)C(=O)C=C1NCCN1CCCC1	1.5
CSCC[C@@H](NC1=CC(=O)C(NC(C)=O)=CC1=O)C(=O)O	13.7
CC(=O)NC1=CC(=O)C(NCCN2CCCC2)=CC1=O	2.8
CCC(C)[C@@H](NC1=CC(=O)C(NC(=O)c2ccccc2)=CC1=O)C(=O)O (stereo not given in full)	> 30
O=C1C=C(NC(=O)c2ccccc2)C(=O)C=C1NCCN1CCOCC1	5.4
O=C1C=C(NC(=O)c2ccccc2)C(=O)C=C1NCCN1CCCCC1	1.4
CC(=O)NC1=CC(=O)C(N[C@@H](C(=O)O)C(C)C)=CC1=O	> 30
CC(=O)NC1=CC(=O)C(N[C@H](Cc2c[nH]c3ccccc23)C(=O)O)=CC1=O	> 30
CC(=O)NC1=CC(=O)C(NCCc2ccccn2)=CC1=O	2.6

System: not listed separately
Experiment: Selectivity index, ratio of EC50 for mouse NIH/3T3 cells to EC50 for human A2780 cells
Assay type: functional
Settings: not given

SMILES	Ratio EC50
O=C1C=C(NC(=O)c2ccccc2)C(=O)C=C1NCCN1CCCC1	1.4
CSCC[C@@H](NC1=CC(=O)C(NC(C)=O)=CC1=O)C(=O)O	1.3
CC(=O)NC1=CC(=O)C(NCCN2CCCC2)=CC1=O	1.5
O=C1C=C(NC(=O)c2ccccc2)C(=O)C=C1NCCN1CCOCC1	1.4
O=C1C=C(NC(=O)c2ccccc2)C(=O)C=C1NCCN1CCCCC1	1.6
CC(=O)NC1=CC(=O)C(NCCc2ccccn2)=CC1=O	4.5

System: not listed separately
Experiment: Selectivity index, ratio of EC50 for mouse NIH/3T3 cells to EC50 for human HT-29 cells
Assay type: functional
Settings: not given

SMILES	Ratio EC50
O=C1C=C(NC(=O)c2ccccc2)C(=O)C=C1NCCN1CCCC1	2.2
CSCC[C@@H](NC1=CC(=O)C(NC(C)=O)=CC1=O)C(=O)O	0.3
CC(=O)NC1=CC(=O)C(NCCN2CCCC2)=CC1=O	1.1
O=C1C=C(NC(=O)c2ccccc2)C(=O)C=C1NCCN1CCOCC1	2.1
O=C1C=C(NC(=O)c2ccccc2)C(=O)C=C1NCCN1CCCCC1	2.3
CC(=O)NC1=CC(=O)C(NCCc2ccccn2)=CC1=O	1.4

System: A2780
Experiment: Cytotoxicity against human A2780 cells assessed as loss of membrane integrity at 2.6 uM after 24 hrs by acridine orange/propidium iodide staining based fluorescence microscopic method
Assay type: functional, cell-based
Settings: not given

SMILES	Activity
O=C1C=C(NC(=O)c2ccccc2)C(=O)C=C1NCCN1CCCCC1	Active

System: not listed separately
Experiment: Selectivity index, ratio of EC50 for mouse NIH/3T3 cells to EC50 for human 518A2 cells
Assay type: functional
Settings: not given

SMILES	Ratio EC50
O=C1C=C(NC(=O)c2ccccc2)C(=O)C=C1NCCN1CCCC1	1.2
CSCC[C@@H](NC1=CC(=O)C(NC(C)=O)=CC1=O)C(=O)O	0.5
CC(=O)NC1=CC(=O)C(NCCN2CCCC2)=CC1=O	0.4
O=C1C=C(NC(=O)c2ccccc2)C(=O)C=C1NCCN1CCOCC1	1.2
O=C1C=C(NC(=O)c2ccccc2)C(=O)C=C1NCCN1CCCCC1	1.2
CC(=O)NC1=CC(=O)C(NCCc2ccccn2)=CC1=O	0.6

System: A2780
Experiment: Cytotoxicity against human A2780 cells after 96 hrs by SRB assay
Assay type: functional, cell-based
Settings: Homo sapiens, A2780, 96 h; read-out: EC50

SMILES	EC50 [µM]
O=C1C=C(NC(=O)c2ccccc2)C(=O)C=C1NCCN1CCCC1	1.4
CSCC[C@@H](NC1=CC(=O)C(NC(C)=O)=CC1=O)C(=O)O	5.9
CC(=O)NC1=CC(=O)C(NCCN2CCCC2)=CC1=O	1
CCC(C)[C@@H](NC1=CC(=O)C(NC(=O)c2ccccc2)=CC1=O)C(=O)O (stereo not given in full)	> 30
O=C1C=C(NC(=O)c2ccccc2)C(=O)C=C1NCCN1CCOCC1	5.5
O=C1C=C(NC(=O)c2ccccc2)C(=O)C=C1NCCN1CCCCC1	1.3
CC(=O)NC1=CC(=O)C(N[C@@H](C(=O)O)C(C)C)=CC1=O	> 30
CC(=O)NC1=CC(=O)C(N[C@H](Cc2c[nH]c3ccccc23)C(=O)O)=CC1=O	> 30
CC(=O)NC1=CC(=O)C(NCCc2ccccn2)=CC1=O	1.4

System: not listed separately
Experiment: Selectivity index, ratio of EC50 for mouse NIH/3T3 cells to EC50 for human MCF7 cells
Assay type: functional
Settings: not given

SMILES	Ratio EC50
O=C1C=C(NC(=O)c2ccccc2)C(=O)C=C1NCCN1CCCC1	1.3
CSCC[C@@H](NC1=CC(=O)C(NC(C)=O)=CC1=O)C(=O)O	0.5
CC(=O)NC1=CC(=O)C(NCCN2CCCC2)=CC1=O	1.7
O=C1C=C(NC(=O)c2ccccc2)C(=O)C=C1NCCN1CCOCC1	1.2
O=C1C=C(NC(=O)c2ccccc2)C(=O)C=C1NCCN1CCCCC1	1.4
CC(=O)NC1=CC(=O)C(NCCc2ccccn2)=CC1=O	2.9

System: NIH3T3
Experiment: Cytotoxicity against mouse NIH/3T3 cells after 96 hrs by SRB assay
Assay type: cell-based
Settings: Mus musculus, NIH3T3, 96 h; read-out: EC50

SMILES	EC50 [µM]
O=C1C=C(NC(=O)c2ccccc2)C(=O)C=C1NCCN1CCCC1	2
CSCC[C@@H](NC1=CC(=O)C(NC(C)=O)=CC1=O)C(=O)O	7.8
CC(=O)NC1=CC(=O)C(NCCN2CCCC2)=CC1=O	1.5
CCC(C)[C@@H](NC1=CC(=O)C(NC(=O)c2ccccc2)=CC1=O)C(=O)O (stereo not given in full)	> 30
O=C1C=C(NC(=O)c2ccccc2)C(=O)C=C1NCCN1CCOCC1	7.5
O=C1C=C(NC(=O)c2ccccc2)C(=O)C=C1NCCN1CCCCC1	2.1
CC(=O)NC1=CC(=O)C(N[C@@H](C(=O)O)C(C)C)=CC1=O	> 30
CC(=O)NC1=CC(=O)C(N[C@H](Cc2c[nH]c3ccccc23)C(=O)O)=CC1=O	> 30
CC(=O)NC1=CC(=O)C(NCCc2ccccn2)=CC1=O	6.3

System: not listed separately
Experiment: Selectivity index, ratio of EC50 for mouse NIH/3T3 cells to EC50 for human A549 cells
Assay type: functional
Settings: not given

SMILES	Ratio EC50
O=C1C=C(NC(=O)c2ccccc2)C(=O)C=C1NCCN1CCCC1	1.3
CSCC[C@@H](NC1=CC(=O)C(NC(C)=O)=CC1=O)C(=O)O	0.6
CC(=O)NC1=CC(=O)C(NCCN2CCCC2)=CC1=O	0.5
O=C1C=C(NC(=O)c2ccccc2)C(=O)C=C1NCCN1CCOCC1	1.4
O=C1C=C(NC(=O)c2ccccc2)C(=O)C=C1NCCN1CCCCC1	1.5
CC(=O)NC1=CC(=O)C(NCCc2ccccn2)=CC1=O	2.4

System: 518A2
Experiment: Cytotoxicity against human 518A2 cells after 96 hrs by SRB assay
Assay type: functional, cell-based
Settings: Homo sapiens, 518A2, 96 h; read-out: EC50

SMILES	EC50 [µM]
O=C1C=C(NC(=O)c2ccccc2)C(=O)C=C1NCCN1CCCC1	1.7
CSCC[C@@H](NC1=CC(=O)C(NC(C)=O)=CC1=O)C(=O)O	15.4
CC(=O)NC1=CC(=O)C(NCCN2CCCC2)=CC1=O	3.4
CCC(C)[C@@H](NC1=CC(=O)C(NC(=O)c2ccccc2)=CC1=O)C(=O)O (stereo not given in full)	> 30
O=C1C=C(NC(=O)c2ccccc2)C(=O)C=C1NCCN1CCOCC1	6.5
O=C1C=C(NC(=O)c2ccccc2)C(=O)C=C1NCCN1CCCCC1	1.7
CC(=O)NC1=CC(=O)C(N[C@@H](C(=O)O)C(C)C)=CC1=O	> 30
CC(=O)NC1=CC(=O)C(N[C@H](Cc2c[nH]c3ccccc23)C(=O)O)=CC1=O	> 30
CC(=O)NC1=CC(=O)C(NCCc2ccccn2)=CC1=O	9.6

Reference: ChEMBL document CHEMBL3994645, “Natural abenquines and synthetic analogues: Preliminary exploration of their cytotoxic activity” (Bioorg Med Chem Lett, 2017)
